# Columns and labels:
# [1] = target: T1, Drd1 (Mus musculus, UniProt Q61616); test: Ex vivo ciliary beating frequency (CBF) in brain slices, Drd1 agonist/antagonist bath-applied; format: cell-based; conditions: SKF81297 10 μM bath-applied, slices from 4- to 5-month-old WT mice, vs vehicle (DMSO)
# T1 construct: coronal brain sections (300-μm) were collected in L-15 Leibovitz media; from tissue; host or cells: acute coronal mouse brain slices (300 µm); ciliated ependymal cells of the lateral ventricle wall; WT and Dgcr8+/- mice
# T1 sequence (Q61616 whole entry): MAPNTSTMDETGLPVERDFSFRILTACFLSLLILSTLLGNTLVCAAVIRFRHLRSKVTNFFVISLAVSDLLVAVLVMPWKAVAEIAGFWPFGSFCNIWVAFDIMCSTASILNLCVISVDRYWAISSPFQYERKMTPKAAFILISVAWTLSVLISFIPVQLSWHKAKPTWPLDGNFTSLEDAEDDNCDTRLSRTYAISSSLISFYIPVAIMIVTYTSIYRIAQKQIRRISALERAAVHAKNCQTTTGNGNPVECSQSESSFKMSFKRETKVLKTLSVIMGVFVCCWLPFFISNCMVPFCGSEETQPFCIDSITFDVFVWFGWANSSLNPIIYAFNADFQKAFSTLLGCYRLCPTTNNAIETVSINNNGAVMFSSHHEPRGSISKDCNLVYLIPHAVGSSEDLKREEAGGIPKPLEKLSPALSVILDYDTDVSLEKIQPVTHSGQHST
# Description: Ex Vivo Ciliary Beating Frequency Measurements. For ex vivo measurement of CBF, coronal brain sections (300-μm) were collected in L-15 Leibovitz media (Thermo Fisher Scientific) and placed in 37° C., 95%/5% O2/CO2 chamber. Image sequences of CBF were acquired by linescan analysis using an LD C-Apochromat 40× objective water-immersion lens (1.1 NA) in LSM780 confocal microscope (Zeiss AxioObserver). Slices were scanned through a line perpendicular to the axis of the cilia in the Xt mode along this line with an acquisition rate of 529 frames/second (512×1 frame size, 1.89-ms scan time, 5,000 cycles). Transmitted DIC and fluorescence emitted by GFP or Alexa Fluor 488 were collected with a 488- to 568-nm bandpass filter. Fluorescence excitation and transmitted illumination were provided by a 488-nm argon gas laser. The Drd1 agonist (SKF81297, 10 μM; Tocris, Minneapolis, MN) and antagonist (SCH23390, 10 μM; Tocris) were bath-applied once per slice. Five minutes after the agonist or antagonist was applied, the CBF was measured.
# [2] = system: luciferase reporter encoding miRNA sponge; test: Luciferase assay validating miRNA sponges in Neuro 2a cells; format: cell-based, mouse; conditions: pGIPZ vector encoding the miRNA vs control pGIPZ
# Description: FIGS. 13A-13B. Validation of the miRNA Sponges, Related to FIGS. 6A-6H. (FIG. 13A) Luciferase activity measured in Neuro 2a cells transfected with luciferase reporter vector alone, luciferase reporter vector encoding miR-382-3p sponges (two-tailed Student's t-test; t4=1.62, p=0.18) containing two (t4=23.00, *p<0.001), four (t4=24.35, *p<0.001), or six (t4=9.17, *p<0.001) miRNA-binding sites or scrambled sites (t4=2.36, p=0.08) in the presence of control pGIPZ vector or pGIPZ vector encoding miR-382-3p. Based on these experiments, the miR-382-3p sponge with six seed sites was chosen for in vivo experiments. (FIG. 13B) Luciferase activity in Neuro2a cells transfected with luciferase reporter vector alone, luciferase reporter vector encoding miR-674-3p sponges (t4=14.13, *p<0.001) containing two (t4=14.25, *p<0.001), four (t4=80.70, *p<0.001), or six miRNA-binding sites (t4=26.67, *p<0.001), or scrambled (t4=1.11, p=0.33) sites in the presence of control pGIPZ vector or pGIPZ vector encoding miR-674-3p. Data are shown as the mean±S.E.M.
# Generation of miRNA Sponge Constructs. The miR-382-3p and miR-674-3p sponges were generated as described previously (Chun et al., 2017). […]
Molecule,ependymal CBF [1],inhibition of reporters containing the sponge sequence (luciferase activity) [2]
Oc1cc2c(c(Cl)c1O)CCNCC2c1ccccc1 (centres unmarked) [SKF81297],slowed ependymal CBF compared to vehicle treatment,
miR-674-3p: mature mouse miRNA CACAGCUCCCAUCUCAGAACAA (SEQ ID NO: 3); in FIG. 13 expressed from pGIPZ vector (listed as Mus musculus),,effectively inhibited reporters containing the sponge sequence in vitro

# Source: US12680102B2, “miRNAS for reducing ventricle enlargement” (St. Jude Children's Research Hospital, Inc., priority 2019, dated 2026)
